Target: T1, human mGluR3 (hmGluR3) (Homo sapiens, UniProt Q14832)
T1 construct: expressed in transfected cells; host or cells: HEK-293 cells, transient co-transfection by electroporation
Test: Human mGluR3 positive allosteric modulator evaluation using Ca++ functional assay
Type: cell-based
Conditions: hmGluR3 transiently over-expressed in HEK-293 cells; stimulated by EC50 glutamate concentration; intracellular Ca2+ (Fluo4AM, FLIPR Tetra)
Description: Compounds of the present invention were tested successively for their agonist and positive allosteric modulator activities on human mGluR3 (hmGluR3) transiently over-expressed in HEK-293 cells. Compounds exert agonist activity if they are able to activate hmGluR3 by themselves, i.e., in absence of the endogenous agonist glutamate; and they exert positive allosteric modulator activity if they increase the action of the endogenous agonist glutamate.
HEK-293 cells were maintained in Modified Eagle's Medium supplemented with 10% Foetal Calf Serum, 1% Penicillin/Streptomycin and 1% non-essential amino acids at 37° C./5% CO2.
Cells were co-transfected by electroporation with four DNA plasmids encoding hmGluR3, a chimeric G protein allowing redirection of the activation signal toward intracellular calcium pathway, and two glutamate transporters so as to decrease extracellular glutamate levels and avoid receptor desensitization (Brabet I et al., Neuropharmacology 37(8), 1043-51, 1998). After transfection, cells were seeded in 75 cm^2 culture flasks, and cultured for 24 h.
Receptor activity was detected by changes in intracellular calcium measured using the fluorescent Ca^2+ sensitive dye, Fluo4AM (Molecular Probes).
The day of the assay, medium was aspirated and replaced during 3 hrs by freshly prepared buffer B (HBSS 1×, Hepes 20 mM, MgSO4-7H2O 1 mM, Na2CO3 3.3 mM, CaCl2-2H2O 1.3 mM, 0.5% BSA, Probenecid 2.5 mM). Then, cells were loaded at 37° C./5% CO2 for 1.5 hrs with buffer B containing 1 μM Fluo4AM, 0.1 mg/mL Pluronic Acid, 7 μg/mL Glutamate Pyruvate Transaminase and 2 mM sodium pyruvate. Afterwards cells were washed with buffer B. Cells were then detached from the 75 cm^2 culture flasks with Accutase® (5 min incubation at 37° C.), centrifuged (5 min at 840 rpm), resuspended in buffer B and finally seeded at a density of 30,000 cells/well in black-walled clear-bottom 384-well plates. Addition of compounds on cells and intracellular Ca^2+ measurements (excitation 485 nm, emission 525 nm) were performed by the fluorescence microplate reader FLIPR Tetra (Molecular Devices).
Agonist and positive allosteric modulator activities of compounds were consecutively evaluated on the same cells plate. Agonist activity was first tested during 10 min with the addition of compound alone on the cells. Then, the cells were stimulated by an EC50 glutamate concentration and fluorescence was recorded for additional 3 min. EC50 glutamate concentration is the concentration giving 50% of the maximal glutamate response. Agonist and/or positive allosteric modulator activity(ies) were evaluated in comparison to basal signal or signal evoked by EC50 glutamate concentration alone, respectively.
For potency determination, a dose-response test was performed using 20 concentrations of each compound of the invention. Dose-response curves were fitted using the sigmoïdal dose-response (variable slope) analysis in XLfit Scientific Curve Fitting for Excel (IDBS). EC50 of agonist/EC50 of positive allosteric modulator activity(ies) were calculated. Dose-response experiments were all performed in duplicate, two times independently.

T1 sequence (Q14832 23-879): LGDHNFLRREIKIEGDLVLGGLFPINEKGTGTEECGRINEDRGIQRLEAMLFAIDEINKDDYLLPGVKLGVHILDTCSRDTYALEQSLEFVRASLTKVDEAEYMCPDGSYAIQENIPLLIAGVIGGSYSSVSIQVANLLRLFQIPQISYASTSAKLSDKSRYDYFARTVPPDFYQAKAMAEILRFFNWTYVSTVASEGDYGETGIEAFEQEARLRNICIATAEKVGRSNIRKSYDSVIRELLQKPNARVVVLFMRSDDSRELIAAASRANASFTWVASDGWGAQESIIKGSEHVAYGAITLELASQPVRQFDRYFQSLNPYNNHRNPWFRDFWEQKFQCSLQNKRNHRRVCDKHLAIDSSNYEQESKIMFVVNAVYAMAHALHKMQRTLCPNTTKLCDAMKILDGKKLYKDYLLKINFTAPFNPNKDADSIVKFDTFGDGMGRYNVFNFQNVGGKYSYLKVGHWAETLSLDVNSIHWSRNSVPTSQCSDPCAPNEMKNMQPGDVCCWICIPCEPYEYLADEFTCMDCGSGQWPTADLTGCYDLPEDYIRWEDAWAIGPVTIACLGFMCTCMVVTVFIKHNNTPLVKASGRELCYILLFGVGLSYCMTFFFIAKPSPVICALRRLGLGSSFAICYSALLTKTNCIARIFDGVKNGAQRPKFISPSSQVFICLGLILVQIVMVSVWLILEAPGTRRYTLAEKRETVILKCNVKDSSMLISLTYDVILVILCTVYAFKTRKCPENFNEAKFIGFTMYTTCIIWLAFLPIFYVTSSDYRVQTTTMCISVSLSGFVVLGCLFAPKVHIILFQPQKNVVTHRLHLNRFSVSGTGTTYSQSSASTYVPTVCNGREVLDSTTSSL

SMILES	EC50
Cc1ccc(-c2ccc3c(c2)-n2cc(-c4nccs4)cc2C(=O)N(C)C32CC2)cn1 [Example 158]	< 0.1 µM
Cc1ncccc1-c1cccc2c1-n1cccc1C(=O)N(C)C21CC1 [Example 92, 10-(2-Methyl-pyridin-3-yl)-5-methyl-spiro[benzo[f]pyrrolo[1,2-a][1,4]diazepine-6,1′-cyclopropan]-4(5H)-one]	> 1 µM
Cc1cncc(-c2ccc3c(c2)-n2cc(-c4ccccc4)cc2C(=O)N(C)C32CC2)c1 [Example 98, 5-Methyl-2-phenyl-9-(5-methyl-pyridin-3-yl)-spiro[benzo[f]pyrrolo[1,2-a][1,4]diazepine-6,1′-cyclopropan]-4(5H)-one]	0.1 to 1 µM
CCc1ncccc1-c1ccc2c(c1)-n1cc(-c3ccnn3C)cc1C(=O)N(C)C21CC1 [Example 163]	< 0.1 µM
CN1C(=O)c2cc(Cl)cn2-c2cc(Br)ccc2C12CC2 [Example 5, 9-Bromo-2-chloro-5-methyl-spiro[benzo[f]pyrrolo[1,2-a][1,4]diazepine-6,1′-cyclopropan]-4(5H)-one]	> 1 µM
Cc1ccc(-c2ccc3c(c2)-n2cccc2C(=O)N(C)C32CC2)c(C)n1 [Example 56, 5-Methyl-9-(2,6-dimethylpyridin-3-yl)-spiro[benzo[f]pyrrolo[1,2-a][1,4]diazepine-6,1′-cyclopropan]-4(5H)-one]	< 0.1 µM
CN1C(=O)c2cccn2-c2cc(-c3cnc(N)c(C(F)(F)F)c3)ccc2C12CC2 [Example 40, 5-Methyl-9-(6-amino-5-trifluoromethyl-pyridin-3-yl)-spiro[benzo[f]pyrrolo[1,2-a][1,4]diazepine-6,1′-cyclopropan]-4(5H)-one]	> 1 µM
Cc1ncccc1-c1ccc2c(c1)-n1cc(-c3cc[nH]n3)cc1C(=O)N(C)C21CC1 [Example 146]	< 0.1 µM
CCc1ncccc1-c1ccc2c(c1)-n1cccc1C(=O)N(C)C21CC1 [Example 24, 5-Methyl-9-(2-ethylpyridin-3-yl)-spiro[benzo[f]pyrrolo[1,2-a][1,4]diazepine-6,1′-cyclopropan]-4(5H)-one]	0.1 to 1 µM
Cc1cc(-c2ccc3c(c2)-n2nc(-c4ccccc4)cc2C(=O)N(C)C32CC2)cc(C)n1 [Example 121, 9-(2,6-Dimethyl-pyridin-4-yl)-5-methyl-2-phenyl-spiro[benzo[f]pyrazolo[1,5-a][1,4]diazepine-6,1′-cyclopropan]-4(5H)-one]	0.1 to 1 µM
Cc1ncccc1-c1ccc2c(c1)-n1cc(-c3cnco3)cc1C(=O)N(C)C21CC1 [Example 182]	< 0.1 µM
CN1Cc2ccc(-c3ccc(N)nc3)cc2-n2cc(-c3ccccc3)cc2C1=O [Example 165, 9-(6-Amino-pyridin-3-yl)-5-methyl-2-phenyl-5,6-dihydro-benzo[f]pyrrolo[1,2-a][1,4]diazepin-4-one]	0.1 to 1 µM
Cc1ncccc1-c1ccc2c(c1)-n1cc(C3CCCC3)cc1C(=O)N(C)C21CC1 [Example 156]	0.1 to 1 µM
Cc1ncccc1-c1ccc2c(c1)N1CCCC1C(=O)N(C)C21CC1 (stereo not shown) [Example 209, 5-Methyl-9-(2-methylpyridin-3-yl)-1,2,3,3a-tetrahydro-spiro[benzo[f]pyrrolo[1,2-a][1,4]diazepine-6,1′-cyclopropan]-4(5H)-one]	> 1 µM
Cc1ccc(-c2ccc3c(c2)-n2nc(-c4ccccc4)cc2C(=O)N(C)C32CC2)c(C)n1 [Example 126, 9-(2,6-Dimethyl-pyridin-3-yl)-5-methyl-2-phenyl-spiro[benzo[f]pyrazolo[1,5-a][1,4]diazepine-6,1′-cyclopropan]-4(5H)-one]	< 0.1 µM
Cc1ncccc1-c1ccc2c(c1)-n1cc(-c3cccnc3)cc1C(=O)N(C)C21CC1 [Example 143]	< 0.1 µM
CN1C(=O)c2cccn2-c2cc(Br)cc(F)c2C12CC2 [Example 7, 9-Bromo-7-fluoro-5-methyl-spiro[benzo[f]pyrrolo[1,2-a][1,4]diazepine-6,1′-cyclopropan]-4(5H)-one]	> 1 µM
Cc1ncccc1-c1ccc2c(c1)-n1cc(-c3ccccc3)nc1C(=O)N(C)C2 [Example 166, 5-Methyl-9-(2-methylpyridin-3-yl)-2-phenyl-5,6-dihydro-4H-benzo[f]imidazo[1,2-a][1,4]diazepin-4-one]	0.1 to 1 µM
CN1C(=O)c2cc(-c3ccccc3)cn2-c2cc(-c3ccccn3)ccc2C12CC2 [Example 111, 5-Methyl-2-phenyl-9-(pyridin-2-yl)-spiro[benzo[f]pyrrolo[1,2-a][1,4]diazepine-6,1′-cyclopropan]-4(5H)-one]	< 0.1 µM
Cc1ncccc1-c1cc(F)c2c(c1)-n1cccc1C(=O)N(C)C21CC1 [Example 73, 7-Fluoro-5-methyl-9-(2-methyl-pyridin-3-yl)-spiro[benzo[f]pyrrolo[1,2-a][1,4]diazepine-6,1′-cyclopropan]-4(5H)-one]	< 0.1 µM
Cc1ncccc1-c1ccc2c(c1)-n1cc(C(F)F)cc1C(=O)N(C)C21CC1 [Example 201]	< 0.1 µM
CCN1Cc2ccc(-c3cccnc3C)cc2-n2cc(-c3ccccc3)nc2C1=O [Example 167, 5-Ethyl-9-(2-methylpyridin-3-yl)-2-phenyl-5,6-dihydro-4H-benzo[f]imidazo[1,2-a][1,4]diazepin-4-one]	> 1 µM
Cc1ncccc1-c1ccc2c(c1)-n1cc(-c3ccccc3)cc1C(=O)N(C)C21CC1 [Example 95, 5-Methyl-2-phenyl-9-(2-methyl-pyridin-3-yl)-spiro[benzo[f]pyrrolo[1,2-a][1,4]diazepine-6,1′-cyclopropan]-4(5H)-one]	< 0.1 µM

More lines, now with the values ahead:

EC50	SMILES
< 0.1 µM	Cc1ncccc1-c1ccc2c(c1)-n1cc(C3CC3)cc1C(=O)N(C)C21CC1 [Example 155]
< 0.1 µM	Cc1ncccc1-c1ccc2c(c1)-n1nc(-c3ccccc3)cc1C(=O)N(C)C21CC1 [Example 125, 9-(2-Methyl-pyridin-3-yl)-5-methyl-2-phenyl-spiro[benzo[f]pyrazolo[1,5-a][1,4]diazepine-6,1′-cyclopropan]-4(5H)-one]
0.1 to 1 µM	CCc1ncccc1-c1ccc2c(c1)-n1cc(Br)cc1C(=O)N(C)C21CC1 [Example 19, 2-Bromo-5-methyl-9-(2-ethyl-pyridin-3-yl)-spiro[benzo[f]pyrrolo[1,2-a][1,4]diazepine-6,1′-cyclopropan]-4(5H)-one]
< 0.1 µM	Cc1ncccc1-c1ccc2c(c1)-n1cc(-c3ncc[nH]3)cc1C(=O)N(C)C21CC1 [Example 184]
< 0.1 µM	Cc1ncccc1-c1ccc2c(c1)-n1cc(-c3nccs3)cc1C(=O)N(C)C21CC1 [Example 157]
> 1 µM	Cc1nccnc1-c1ccc2c(c1)-n1cccc1C(=O)N(C)C21CC1 [Example 58, 5-Methyl-9-(3-methyl-pyrazin-2-yl)-5,6-spiro[benzo[f]pyrrolo[1,2-a][1,4]diazepine-6,1′-cyclopropan]-4(5H)-one]
0.1 to 1 µM	Cc1ncccc1-c1ccc2c(c1)-n1cccc1C(=O)N(C)C2C (stereo not shown) [Example 218, 5,6-Dimethyl-9-(2-methyl-pyridin-3-yl)-5,6-dihydro-benzo[f]pyrrolo[1,2-a][1,4]diazepin-4-one]
< 0.1 µM	Cc1ncccc1-c1ccc2c(c1)-n1cc(Cl)cc1C(=O)N(C)C21CC1 [Example 82, 9-(2-Methyl-pyridin-3-yl)-2-chloro-5-methyl-spiro[benzo[f]pyrrolo[1,2-a][1,4]diazepine-6,1′-cyclopropan]-4(5H)-one]
> 1 µM	CN1C(=O)c2cc(-c3ccccc3)nn2-c2cc(-c3ccc(Cl)cc3)ccc2C12CC2 [Example 135, 9-(4-Chloro-phenyl)-5-methyl-2-phenyl-spiro[benzo[f]pyrazolo[1,5-a][1,4]diazepine-6,1′-cyclopropan]-4(5H)-one]
< 0.1 µM	CN1C(=O)c2cc(-c3ccccc3)cn2-c2cc(-c3ccncc3)ccc2C12CC2 [Example 102, 5-Methyl-2-phenyl-9-(pyridin-4-yl)-spiro[benzo[f]pyrrolo[1,2-a][1,4]diazepine-6,1′-cyclopropan]-4(5H)-one]
0.1 to 1 µM	Cc1ccncc1-c1ccc2c(c1)-n1cc(-c3ccccc3)cc1C(=O)N(C)C21CC1 [Example 101, 5-Methyl-2-phenyl-9-(4-methyl-pyridin-3-yl)-spiro[benzo[f]pyrrolo[1,2-a][1,4]diazepine-6,1′-cyclopropan]-4(5H)-one]
